Test results from patent EP2540163A1, “Nematocide N-cyclopropyl-sulfonylamide derivatives” (Bayer CropScience AG, priority 2011, dated 2013).

test: logP by HPLC on reversed-phase column (C 18), EEC Directive 79/831 Annex V.A8, Method B (0.1% aqueous formic acid / acetonitrile, 40°C); assay type: physicochemical; conditions: c18 reversed-phase hplc; LogP method B: HPLC reversed-phase C 18, 40°C, 0.1% aqueous formic acid / acetonitrile
Description: Calibration was carried out using unbranched alkan-2-ones (having 3 to 16 carbon atoms) with known logP values (determination of the logP values by the retention times using linear interpolation between two successive alkanones).

Row | SMILES | chromatographic logP
1 | Cc1cc(C(=O)N(C2CC2)S(=O)(=O)c2ccc(Cl)c(Cl)c2Cl)c(C)o1 [compound 6] | 4.4
2 | Cn1cc(C(=O)N(C2CC2)S(=O)(=O)c2ccc(Cl)c(Cl)c2Cl)c(C(F)(F)F)c1 [compound 37] | 3.9
3 | Cc1cc(C(=O)N(C2CC2)S(=O)(=O)c2ccc(Cl)c(Cl)c2Cl)nn1C [compound 75] | 3.3
4 | CC(C)c1nn(C)c(F)c1C(=O)N(C1CC1)S(=O)(=O)c1ccc(Cl)cc1Cl [compound 96] | 3.8
5 | CC(C)c1nn(C)c(F)c1C(=O)N(C1CC1)S(=O)(=O)c1ccc(C(F)(F)F)cc1Cl [compound 97] | 4
6 | Cn1nc(-c2ccccc2)c(C(=O)N(C2CC2)S(=O)(=O)c2ccc(Cl)c(Cl)c2Cl)c1F [compound 100] | 4.3
7 | Cn1nc(-c2ccccc2)c(C(=O)N(C2CC2)S(=O)(=O)c2cccc(Cl)c2Cl)c1F [compound 101] | 3.7
8 | Cn1nc(C(F)F)c(C(=O)N(C2CC2)S(=O)(=O)c2ccccc2Cl)c1F [compound 103] | 2.8
9 | Cn1nc(C(F)F)c(C(=O)N(C2CC2)S(=O)(=O)c2ccc(Cl)cc2Cl)c1F [compound 105] | 3.4
10 | Cn1nc(C(F)(F)F)c(C(=O)N(C2CC2)S(=O)(=O)c2ccc(Cl)c(Cl)c2Cl)c1F [compound 108] | 4.1
11 | Cn1nc(C2CC2)c(C(=O)N(C2CC2)S(=O)(=O)c2ccc(Cl)c(Cl)c2Cl)c1Cl [compound 223] | 4.2
12 | Cn1nc(C2CC2)c(C(=O)N(C2CC2)S(=O)(=O)c2ccc(Cl)c(Cl)c2Cl)c1F [compound 224] | 3.9
13 | Cn1nc(C2CC2)c(C(=O)N(C2CC2)S(=O)(=O)c2cccc(Cl)c2Cl)c1Cl [compound 225] | 4.7
14 | Cc1nn(C)c(C#N)c1C(=O)N(C1CC1)S(=O)(=O)c1ccc(Cl)c(Cl)c1Cl [compound 228] | 3.9
15 | Cc1nn(C)c(N(C)C)c1C(=O)N(C1CC1)S(=O)(=O)c1ccc(Cl)c(Cl)c1Cl [compound 229] | 3.6
16 | COc1c(C(=O)N(C2CC2)S(=O)(=O)c2ccc(Cl)c(Cl)c2Cl)c(C)nn1C [compound 230] | 3.2
17 | Cc1nn(C)c(Oc2ccc(Cl)cc2)c1C(=O)N(C1CC1)S(=O)(=O)c1ccccc1Cl [compound 261] | 3.6
18 | COc1nn(C)c(Cl)c1C(=O)N(C1CC1)S(=O)(=O)c1ccc(Oc2ccccc2)cc1 [compound 280] | 3.8
19 | COc1nn(C)c(Cl)c1C(=O)N(C1CC1)S(=O)(=O)c1ccc(Cl)c(Cl)c1Cl [compound 282] | 3.8

The next lines start with the values.

Row | chromatographic logP | SMILES
20 | 3.8 | Cc1cc(C(=O)N(C2CC2)S(=O)(=O)c2cccc(Cl)c2Cl)c(C)o1 [compound 5]
21 | 3.8 | O=C(c1ccsc1I)N(C1CC1)S(=O)(=O)c1cccc(Cl)c1Cl [compound 19]
22 | 3.3 | COc1cscc1C(=O)N(C1CC1)S(=O)(=O)c1cccc(Cl)c1Cl [compound 25]
23 | 3.9 | COc1cscc1C(=O)N(C1CC1)S(=O)(=O)c1ccc(Cl)c(Cl)c1Cl [compound 27]
24 | 3.3 | Cn1cc(C(=O)N(C2CC2)S(=O)(=O)c2cccc(Cl)c2Cl)c(C(F)(F)F)c1 [compound 36]
25 | 2.7 | Cc1cc(C(=O)N(C2CC2)S(=O)(=O)c2cccc(Cl)c2Cl)nn1C [compound 74]
26 | 3.6 | CC(C)c1nn(C)c(F)c1C(=O)N(C1CC1)S(=O)(=O)c1cccc(Cl)c1Cl [compound 93]
27 | 3.2 | Cn1nc(C(F)F)c(C(=O)N(C2CC2)S(=O)(=O)c2cccc(Cl)c2Cl)c1F [compound 104]
28 | 2.8 | CC(F)c1nn(C)cc1C(=O)N(C1CC1)S(=O)(=O)c1cccc(Cl)c1Cl (stereo not drawn) [compound 119]
29 | 2.9 | Cn1cc(C(=O)N(C2CC2)S(=O)(=O)c2cccc(Cl)c2Cl)c(C(F)F)n1 [compound 221]
30 | 3.2 | COc1nn(C)c(Cl)c1C(=O)N(C1CC1)S(=O)(=O)c1cccc(Cl)c1Cl [compound 278]
